From patent US20230364044A1, “Methods of Treating or Preventing Acute Respiratory Distress Syndrome” (YALE UNIVERSITY, priority 2018, published 2023)

Experiments:
mouse lungs = test: Immunoblot of lung lysates from mice exposed to hyperoxia; type: in vivo
Procedure: FIG. 3 illustrates the finding that T3 pretreatment increases mitochondrial biogenesis/fusion/mitophagy and decreases ER stress & apoptosis. WT mice were nebulized with T3 (40 μg/kg) for 1 day or 3 days or PTU (100 μg/kg) for 3 days prior to 72 h continuous hyperoxia exposure. Lysates were isolated and immunoblotted against antibodies as listed. ([…] was used as protein loading control.
FIG. 5 illustrates the finding that T3 pretreatment increased Mito anti-ROS potential, biogenesis and mitophagy via PINK 1. WT and PINK1-KO mice were nebulized with T3 (40 μg/kg) for 3 days prior to 72 h continuous hyperoxia exposure. Lysates were isolated and immunoblotted against antibodies as listed. β-Actin was used as protein loading control.
FIG. 7 illustrates the finding that GC-1 pretreatment decreased hyperoxia-induced Mito dysfunction, ER stress and apoptosis. WT mice were orally gavaged with GC-1 (40 μm/kg) and exposed to RA or to hyperoxia for 72 h (H3). A time course of recovery after 72 h hyperoxia is shown (R1-3, 1, 2 3 and 6 days post-hyperoxia). Lysates from mouse lungs were immunoblotted against the listed antibodies (Abs).
FIG. 8 illustrates the finding that GC-1 pretreatment increases Tie2 activation and decreases Ang2. WT mice were orally gavaged with GC-1 (40 μm/kg) and exposed to RA or to hyperoxia for 72 h (H3). A time course of recovery after 72 h hyperoxia is shown (R1-3, 1, 2 3 and 6 days post-hyperoxia). Lysates from mouse lungs were immunoblotted against the listed antibodies.

[1] = tested on: WT mice (hyperoxia-induced lung injury); test: Hyperoxia-induced lung injury in mice, BAL readouts (total cells, protein, LDH, Amplex Red oxidants, IL-1β, IL-6); type: in vivo
Procedure: FIG. 1 illustrates an exemplary T3 administration regime in mice. WT mice were nebulized with triiodothyronine (T3, 40 μg/kg) for 1 day or 3 days or propylthiouracil (PTU, 100 μg/kg) for 3 days prior to 72 h continuous hyperoxia exposure.
FIGS. 2A-2F illustrate the finding that T3 attenuates hyperoxia-induced lung injury, inflammation, and oxidants in WT mice. WT mice were nebulized with T3 (40 μg/kg) for 1 day or 3 days, or PTU (100 μg/kg) for 3 days prior to 72 h continuous hyperoxia exposure. Control mice were exposed to room air (RA). […] IL-1β (FIG. 2E) and IL-6 (FIG. 2F) were detected by ELISA in BALF. The values are expressed as mean±SD and analyzed by Mann-Whitney test n=6 for each group). *p<0.05, vs RA; **p<0.05, vs hyperoxia without pretreatment.
WT, PINK1−/−, and Parkin−/− mice were nebulized with T3 (40 μg/kg) for 3 days or no pretreatment prior to 72 h continuous hyperoxia exposure. […] IL-1β (FIG. 4E) and IL-6 (FIG. 4F) were detected by ELISA in BALF. The values are expressed as mean±SD and analyzed by Mann-Whitney test n=6 for each group). *p<0.05, vs WT no T3 RA; **p<0.05, vs WT no T3 hyperoxia; #p<0.05, vs corresponding RA; ##p<0.05, vs corresponding no T3 hyperoxia.
FIGS. 6A-6F illustrate the finding that GC-1 pretreatment prevents hyperoxia-induced lung injury and accelerates recovery. WT mice were orally gavaged with GC-1 (40 μm/kg) and then exposed to RA or to continuous hyperoxia for 72 h (H3). Recovery phase was initiated after 72 h hyperoxia (R1-3, 1, 2 3 and 6 days post-hyperoxia). Cells recovered from BAL were counted as BAL total cell counts (FIG. 6A). […] IL-6 (FIG. 6E) and IL-1β (FIG. 6F) was detected by ELISA in BALF. The values are expressed as mean±SD and analyzed by Mann-Whitney test (n=4 for each group). *p<0.05 versus no GC-1 RA; **p<0.05 versus no GC-1 H3; #p<0.05 versus corresponding no GC-1.

[2] = WT mice nebulized with T3 (40 μg/kg) for 1 day or 3 days prior to 72 h hyperoxia, FIG. 3
[3] = WT mice orally gavaged with GC-1 (40 μm/kg), 72 h hyperoxia and recovery, FIG. 8

N[C@@H](Cc1cc(I)c(Oc2ccc(O)c(I)c2)c(I)c1)C(=O)O [T3, (S)-2-amino-3-[4-(4-hydroxy-3-iodophenoxy)-3,5-diiodophenyl]propanoic acid] was tested, and the “Mito anti-ROS potential, biogenesis and mitophagy” value (mouse lungs; WT and PINK1-KO mice nebulized with T3 (40 μg/kg) for 3 days prior to 72 h hyperoxia, via PINK 1, FIG. 5) was “increased”, the “ER stress & apoptosis” value (mouse lungs; [2]) was “decreases” and the mitochondrial biogenesis/fusion/mitophagy (mouse lungs; [2]) was “increases”. For the same compound, the hyperoxia-induced oxidants ([1]; WT mice nebulized with T3 (40 μg/kg) for 1 day or 3 days prior to 72 h continuous hyperoxia, Amplex Red, BAL fluid) was “attenuates”, the hyperoxia-induced lung injury ([1]; WT mice nebulized with T3 (40 μg/kg) for 1 day or 3 days prior to 72 h continuous hyperoxia, FIGS. 2A-2F) was “attenuates” and the hyperoxia-induced inflammation ([1]; WT mice nebulized with T3 (40 μg/kg) for 1 day or 3 days prior to 72 h continuous hyperoxia, IL-1β, IL-6 in BALF) was “attenuates”. The “mediator of T3 effects against hyperoxia-induced lung injury” value ([1]; WT, PINK1−/− and Parkin−/− mice nebulized with T3 (40 μg/kg) for 3 days prior to 72 h hyperoxia, FIGS. 4A-4F) was “PINK 1, not Parkin, mediates T3 effects”.

For Cc1cc(OCC(=O)O)cc(C)c1Cc1ccc(O)c(C(C)C)c1 [GC-1, 2-(4-(4-hydroxy-3-isopropylbenzyl)-3,5-dimethylphenoxy)acetic acid], the “hyperoxia-induced Mito dysfunction, ER stress and apoptosis” value (mouse lungs; WT mice orally gavaged with GC-1 (40 μm/kg), 72 h hyperoxia and recovery, FIG. 7) was “decreased”, the Ang2 (mouse lungs; [3]) was “decreases” and the Tie2 activation (mouse lungs; [3]) was “increases”. For the same compound, the hyperoxia-induced lung injury ([1]; WT mice orally gavaged with GC-1 (40 μm/kg), then 72 h continuous hyperoxia (H3), FIGS. 6A-6F) was “prevents” and the recovery after hyperoxia ([1]; WT mice orally gavaged with GC-1 (40 μm/kg), recovery phase 1, 2 3 and 6 days post-hyperoxia) was “accelerates”.
